Results on 27 molecules are retold here after patent US12275729B2 (Merck Sharp & Dohme LLC, priority 2017, dated 2025).

The structures appear in SMILES notation.

The target in one assay is T1, IDO1 (Homo sapiens, UniProt P14902). The assay is described as follows: IDO1 Human Whole Blood Assay. Details: Human whole blood was drawn in sodium heparin coated tubes from healthy internal donors; from tissue; host or cells: human whole blood from healthy donors, stimulated with LPS and IFNγ. The conditions noted are these: LPS and IFNγ stimulated. The assay is classed as cell-based. The method, then: IDO1 Human Whole Blood Assay
T1 sequence (P14902 whole entry): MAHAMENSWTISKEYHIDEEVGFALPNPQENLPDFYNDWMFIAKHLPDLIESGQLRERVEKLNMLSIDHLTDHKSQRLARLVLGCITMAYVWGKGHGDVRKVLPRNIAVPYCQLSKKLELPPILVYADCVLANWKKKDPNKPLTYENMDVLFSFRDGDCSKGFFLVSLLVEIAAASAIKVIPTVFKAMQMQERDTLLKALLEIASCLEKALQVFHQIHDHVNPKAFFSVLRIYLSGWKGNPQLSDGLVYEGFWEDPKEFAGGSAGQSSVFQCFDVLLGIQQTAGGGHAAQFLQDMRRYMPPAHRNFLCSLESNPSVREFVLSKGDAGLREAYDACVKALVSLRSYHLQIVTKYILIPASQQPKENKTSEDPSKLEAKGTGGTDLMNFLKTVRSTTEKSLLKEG
Compounds to be tested were serially diluted in ten 3-fold steps in DMSO starting from 10 mM. […] LPS and IFNγ was prepared in RPMI to a 10× of final conc. (1000 ng/mL), final concentration is 100 ng/mL.
Human whole blood was drawn in sodium heparin coated tubes from healthy internal donors. 240 μL of blood was transferred to each of the wells of a v-bottom 96 well plate. 30 μL of compound was transferred from intermediate dilution plate, and incubated for 15 min. 30 μL from stimulants was then transferred to blood and mixed thoroughly.
On day 2 isotope labeled standard of kynurenine and tryptophan was made in water at 1Ox concentration and 30 μL was added to the blood at […] final concentration. The assay plates were centrifuged at 300×G for 10 min with no brake to separate plasma from red blood cells. 60 μL of plasma samples was removed without disturbing red blood cells. Plasma was diluted with RPMI in 1:1 ratio and proteins were precipitated out with two volume of Acetonitrile. The plates were centrifuged at 4000×G for 60 min. 20 μL of supernatant was carefully transferred to a 384 well plate contain 40 μL of 0.1% formic acid in water and analyzed by LC/MS/MS.
LC/MS/MS analyses were performed using Thermo Fisher's LX4-TSQ Quantum Ultra system. This system consists of four Agilent binary high-performance liquid chromatography (HPLC) pumps and a TSQ Quantum Ultra triple quadrupole MS/MS instrument. For each sample, 5 μL were injected onto an Atlantis T3 column (2.1 mm×150 mm, […] particle size) from Waters. The mobile phase gradient pumped at 0.8 mL/min was used to elute the analytes from the column at 25° C. […] Mobile phase A consisted of 0.1% formic acid in water. Mobile phase B consisted of 0.1% of formic acid in acetonitrile. Data was acquired in positive mode using a HESI interface. The operational parameters for the TSQ Quantum Ultra instrument were a spray voltage of 4000 V, capillary temperature of 380° C., vaporizer temperature 400° C., shealth gas 60 arbitrary units, Aux gas 20 arbitrary units, tube lens 85 and collision gas 1.2 mTorr. […] The peak area was integrated by Xcalibur Quan software. The ratios between the kynurenine generated in the reaction and 2D6-Kynurenine spiked-in internal standard were used to generate percentage inhibition and IC50 values.
As for `CC(C)CC(=O)N1CCCc2cc([C@@H](C)NC(=O)c3ccc(Cl)cc3)ccc21` (racemic) [Example 28, 4-chloro-N-{(1R)-1-[1-(3-methyl-butanoyl)-1,2,3,4-tetrahydroquinolin-6-yl]ethyl}benzamide], the midpoint of inhibition, the IC50, lay at 33 nM. Turning to `CC(C(=O)Nc1ccc(F)cc1)c1ccc2c(c1)CCCN2C(=O)c1cccc(Cl)c1` (racemic) [Example 50, 2-[1-(3-chlorobenzene-1-carbonyl)-1,2,3,4-tetrahydroquinolin-6-yl]-N-(4-fluorophenyl)propanamide], the IC50 came out at 43 nM.

A further assay has as its target T1, IDO1. Description: IDO1 Cellular Assay in HeLa Cells Stimulated with IFNγ. Format: cell-based. The conditions noted are these: about 48 hours, read-out: Hela IC50.
As for `CC(C)CC(=O)N1CCCc2cc([C@@H](C)NC(=O)c3ccc(Cl)cc3)ccc21` (racemic) [Example 28, 4-chloro-N-{(1R)-1-[1-(3-methyl-butanoyl)-1,2,3,4-tetrahydroquinolin-6-yl]ethyl}benzamide], the IC50 was found to be 3.8 nM. On to `CC(C(=O)Nc1ccc(F)cc1)c1ccc2c(c1)CCCN2C(=O)c1cccc(Cl)c1` (racemic) [Example 50, 2-[1-(3-chlorobenzene-1-carbonyl)-1,2,3,4-tetrahydroquinolin-6-yl]-N-(4-fluorophenyl)propanamide], for which the IC50 turned out to be 2.5 nM. For `Cc1ccnc(C(=O)N2CCCc3nc(C4(C(=O)Nc5ccc(F)cc5)COC4)ccc32)n1` [Example 400, N-(4-fluorophenyl)-3-(5-(4-methylpyrimidine-2-carbonyl)-5,6,7,8-tetrahydro-1,5-naphthyridin-2-yl)oxetane-3-carboxamide], the IC50 is 1.91 nM. With `Cc1nccc(N2CCCc3nc(C4(C(=O)Nc5ccc(F)cc5)CCC4)ccc32)n1` [Example 403, N-(4-fluorophenyl)-1-(5-(2-methylpyrimidin-4-yl)-5,6,7,8-tetrahydro-1,5-naphhyridin-2-yl)cyclobutane-1-carboxamide], the IC50 was determined as 2.15 nM. On to `O=C(Nc1ccc(F)cc1)C1(c2ccc3c(n2)CCCN3c2ccnc(C(F)(F)F)n2)CCC1` [Example 407, N-(4-fluorophenyl)-1-(5-(2-(trifluoromethyl)pyrimidin-4-yl)-5,6,7,8-tetrahydro-1,5-naphthyridin-2-yl)cyclobutane-1-carboxamide], for which the IC50 came out at 1.49 nM. Consider `O=C(Nc1ccc(Cl)cc1)C1(c2ccc3c(n2)CCCN3c2cccc(C(F)(F)F)n2)CCC1` [Example 409, N-(4-chlorophenyl)-1-(5-(6-(trifluoromethyl)pyridin-2-yl)-5,6,7,8-tetrahydro-1,5-naphthyridin-2-yl)cyclobutane-1-carboxamide], for which the IC50 was 1.74 nM. The same measure, in the same setting: as for `O=C(OC1CC1)N1CCCc2nc(C3(C(=O)Nc4ccc(Cl)cc4)COC3)ccc21` [compound 398, cyclopropyl 6-(3-((4-chlorophenyl)carbamoyl)oxetan-3-yl)-3,4-dihydro-1,5-naphthyridine-1(2H)-carboxylate], the figure is 1.48 nM.

The assay is the same for the next values; noted with them: read-out: Hela IC50.
With `Cc1nc(N2CCCc3nc(C(C)NC(=O)c4ccc(Cl)cc4)ccc32)c2cc(F)ccc2n1` (centres unmarked) [Example 360, 2-(1-(4-chlorobenzamido)ethyl)-5-(6-fluoro-2-methylquinazolin-4-yl)-5,6,7,8-tetrahydro-1,5-naphthyridin-1-ium 2,2,2-trifluoroacetate], the IC50 amounted to 25.6 nM. For `CC(NC(=O)c1ccc(Cl)cc1)c1ccc2c(n1)CCCN2c1nc(Cl)nc2c1CCCC2` (centres unmarked) [Example 361, 5-(2-chloro-5,6,7,8-tetrahydroquinazolin-4-yl)-2-(1-(4-chlorobenzamido)ethyl)-5,6,7,8-tetrahydro-1,5-naphthyridin-1-ium 2,2,2-trifluoroacetate], the IC50 was determined as 8.35 nM. `CC(C(=O)Nc1ccc(F)cc1)c1ccc2c(n1)CCCN2c1ccnc(C2CC2)n1` (centres unmarked) [Example 367, 2-(5-(2-cyclopropylpyrimidin-4-yl)-5,6,7,8-tetrahydro-1,5-naphthyridin-2-yl)-N-(4-fluorophenyl)propanamide]: the IC50 amounted to 1.81 nM. Consider `CC(NC(=O)c1ccc(F)cc1)c1ccc2c(n1)CCCN2c1cc2n(n1)CCC2` (centres unmarked) [Example 369, N-(1-(5-(5,6-dihydro-4H-pyrrolo[1,2-b]pyrazol-2-yl)-5,6,7,8-tetrahydro-1,5-naphthyridin-2-yl)ethyl)-4-fluorobenzamide], for which the IC50 turned out to be 697 nM. On to `CC(NC(=O)c1ccc(F)cc1)c1ccc2c(n1)CCCN2c1ccn2ncnc2n1` (centres unmarked) [Example 370, N-(1-(5-([1,2,4]triazolo[1,5-a]pyrimidin-5-yl)-5,6,7,8-tetrahydro-1,5-naphthyridin-2-yl)ethyl)-4-fluorobenzamide], for which the IC50 was 1800 nM.

Regarding `Cc1nccc(N2CCCc3nc(C(C)C(=O)Nc4ccc(F)cc4)ccc32)n1` (centres unmarked) [Example 371, N-(4-fluorophenyl)-2-(5-(2-methylpyrimidin-4-yl)-5,6,7,8-tetrahydro-1,5-naphthyridin-2-yl)propanamide], the IC50 stood at 2.72 nM.

Turning to `Cc1nccc(N2CCCc3nc(C(C)C(=O)Nc4ccc(F)cc4)ccc32)n1` (centres unmarked) [Example 372, N-(4-fluorophenyl)-2-(5-(2-methylpyrimidin-4-yl)-5,6,7,8-tetrahydro-1,5-naphthyridin-2-yl)propanamide], the IC50 was 5.34 nM. As to `Cc1nccc(N2CCCc3nc(C(C)C(=O)Nc4ccc(F)cc4)ccc32)n1` (centres unmarked) [Example 373, N-(4-fluorophenyl)-2-(5-(2-methylpyrimidin-4-yl)-5,6,7,8-tetrahydro-1,5-naphthyridin-2-yl)propanamide], the IC50 is 6.38 nM. For the molecule `CC(NC(=O)c1ccc(F)cc1)c1ccc2c(n1)CCCN2c1ncccc1F` (centres unmarked) [Example 375, 4-fluoro-N-(1-(5-(3-fluoropyridin-2-yl)-5,6,7,8-tetrahydro-1,5-naphthyridin-2-yl)ethyl)benzamide], the IC50 was 1530 nM. In the case of `CC(NC(=O)c1ccc(F)cc1)c1ccc2c(n1)CCCN2c1ccc(F)cn1` (centres unmarked) [Example 376, 4-fluoro-N-(1-(5-(5-fluoropyridin-2-yl)-5,6,7,8-tetrahydro-1,5-naphthyridin-2-yl)ethyl)benzamide], the IC50 worked out at 99.6 nM.

For the molecule `COc1ccnc(N2CCCc3nc(C(C)NC(=O)c4ccc(F)cc4)ccc32)c1` (centres unmarked) [Example 377, 4-fluoro-N-(1-(5-(4-methoxypyridin-2-yl)-5,6,7,8-tetrahydro-1,5-naphthyridin-2-yl)ethyl)benzamide], the IC50 came out at 315 nM.

As to `CC(NC(=O)c1ccc(F)cc1)c1ccc2c(n1)CCCN2c1cc(C#N)ccn1` (centres unmarked) [Example 378, N-(1-(5-(4-cyanopyridin-2-yl)-5,6,7,8-tetrahydro-1,5-naphthyridin-2-yl)ethyl)-4-fluorobenzamide], the IC50 was determined as 352 nM. For the molecule `COc1cc(N2CCCc3nc(C(C)NC(=O)c4ccc(F)cc4)ccc32)ncn1` (centres unmarked) [Example 379, 4-fluoro-N-(1-(5-(6-methoxypyrimidin-4-yl)-5,6,7,8-tetrahydro-1,5-naphthyridin-2-yl)ethyl)benzamide], the concentration for half-maximal inhibition (IC50) came to 13 nM. For the molecule `CC(NC(=O)c1ccc(F)cc1)c1ccc2c(n1)CCCN2c1cc(F)ccn1` (centres unmarked) [Example 380, 4-fluoro-N-(1-(5-(4-fluoropyridin-2-yl)-5,6,7,8-tetrahydro-1,5-naphthyridin-2-yl)ethyl)benzamide], the IC50 came out at 74.5 nM. Regarding `C[C@H](NC(=O)c1ccc(F)cc1)c1ccc2c(n1)CCCN2c1cccc(OC(C)(C)C)n1` [Example 385, (S)-N-(1-(5-(6-(tert-butoxy)pyridin-2-yl)-5,6,7,8-tetrahydro-1,5-naphthyridin-2-yl)ethyl)-4-fluorobenzamide], the IC50 was 968 nM. In the case of `C[C@H](NC(=O)c1ccc(F)cc1)c1ccc2c(n1)CCCN2c1cccc(=O)[nH]1` [Example 386, (S)-2-(1-(4-fluorobenzamido)ethyl)-5-(6-oxo-1,6-dihydropyridin-2-yl)-5,6,7,8-tetrahydro-1,5-naphthyridin-1-ium 2,2,2-trifluoroacetate], the IC50 turned out to be 41.4 nM. `C[C@H](NC(=O)c1ccc(F)cc1)c1ccc2c(n1)CCCN2c1cccc(F)n1` [Example 387, (S)-4-fluoro-N-(1-(5-(6-fluoropyridin-2-yl)-5,6,7,8-tetrahydro-1,5-naphthyridin-2-yl)ethyl)benzamide]: the IC50 came out at 25.7 nM.

For `O=C(OC1CC1)N1CCCc2nc(C3(C(=O)Nc4ccc(Cl)cc4)CCC3)ccc21` [Example 411, cyclopropyl 6-(1-((4-chlorophenyl)carbamoyl)cyclobutyl)-3,4-dihydro-1,5-naphthyridine-1(2H)-carboxylate], the IC50 was 0.73 nM. Take `O=C(OC1CC1)N1CCCc2nc(C3(C(=O)Nc4ccc(Cl)nc4)CCC3)ccc21` [Example 412, cyclopropyl 6-(1-((6-chloropyridin-3-yl)carbamoyl)cyclobutyl)-3,4-dihydro-1,5-naphthyridine-1(2H)-carboxylate]: the IC50 was found to be 0.92 nM.

Regarding `O=C(Nc1ccc(F)cc1)C1(c2ccc3c(n2)CCCN3c2ccnc(C(F)(F)F)n2)CC2(CC2)C1` [Example 416, N-(4-fluorophenyl)-5-(5-(2-(trifluoromethyl)pyrimidin-4-yl)-5,6,7,8-tetrahydro-1,5-naphthyridin-2-yl)spiro[2.3]hexane-5-carboxamide], the IC50 is 0.79 nM.
